Patent US4252898A
≈ marks a conversion by molar mass, not a printed value.

Assays:
[1] = system: Actinomyces israelii W855; test: Susceptibility of anaerobic bacterial isolates, agar dilution; format: cell-based; conditions: 27 hours incubation
[2] = system: Clostridium perfringens 81; test: microbe, parasite or virus in culture; format: cell-based; conditions: Clostridium perfringens, 81, 27 h
[3] = system: Clostridium septicum 1128; test: Susceptibility of anaerobic bacterial isolates, agar dilution; format: cell-based; conditions: 27 hours incubation
[4] = system: Eubacterium aerofaciens 1235; test: as above; format: cell-based; conditions: Collinsella aerofaciens, 27 hours incubation
[5] = system: Peptococcus asaccharolyticus 1302; test: as above; format: cell-based; conditions: Peptoniphilus asaccharolyticus, 27 hours incubation
Peptococcus prevoti 1281 = test: as above; format: cell-based; conditions: 27 hours incubation
[6] = system: Peptostreptococcus anaerobius 1428; test: as above; format: cell-based; conditions: 27 hours incubation
[7] = system: Peptostreptococcus intermedium 1264; test: as above; format: cell-based; conditions: 27 hours incubation
[8] = system: Propionibacterium acnes 79; test: as above; format: cell-based; conditions: Cutibacterium acnes, 27 hours incubation
[9] = system: Bacteroides fragilis spp. fragilis 111; test: as above; format: cell-based; conditions: 27 hours incubation
[10] = system: Bacteroides fragilis ssp. fragilis 1877; test: as above; format: cell-based; conditions: 27 hours incubation
[11] = system: Bacteroides fragilis ssp. fragilis 1936B; test: as above; format: cell-based; conditions: 27 hours incubation
[12] = system: Bacteroides fragilis ssp. thetaiotaoimicron 1438; test: as above; format: cell-based; conditions: 27 hours incubation
[13] = system: Bacteroides melaninogenicus 1856/28; test: as above; format: cell-based; conditions: Prevotella intermedia, 27 hours incubation
[14] = system: Bacteroides melaninogenicus 2736; test: as above; format: cell-based; conditions: 27 hours incubation
[15] = system: Bacteroides vulgatis 1211; test: as above; format: cell-based; conditions: 27 hours incubation
[16] = system: Bacteroides corrodens 1874; test: as above; format: cell-based; conditions: Eikenella corrodens, 27 hours incubation
[17] = system: Fusobacterium symbiosum 1470; test: as above; format: cell-based; conditions: 27 hours incubation
[18] = system: Fusobacterium necrophorum 6054A; test: as above; format: cell-based; conditions: 27 hours incubation
S. Aureus (3 strains) = test: Disc-plate test; conditions: Staphylococcus aureus, read-out: Disc-Plate Zone Sizes
S. pyogenes C203 [19] = test: Disc-plate test; conditions: Streptococcus pyogenes, C203, read-out: Disc-Plate Zone Sizes
Group D Streptococcus = test: Disc-plate test; conditions: read-out: Disc-Plate Zone Sizes
S. pneumoniae I [20] = test: Disc-plate test; conditions: Streptococcus pneumoniae, read-out: Disc-Plate Zone Sizes
E. coli Ec-14 = test: Disc-plate test; conditions: Escherichia coli, EC14, read-out: Disc-Plate Zone Sizes
P rettgeri PR-2 = test: Disc-plate test; conditions: read-out: Disc-Plate Zone Sizes
K. pneumoniae KL-14 = test: Disc-plate test; conditions: Klebsiella pneumoniae, KL14, read-out: Disc-Plate Zone Sizes
S. typhosa SA-12 = test: Disc-plate test; conditions: read-out: Disc-Plate Zone Sizes
S. aureus 3.55 = test: Agar-dilution test; conditions: Staphylococcus aureus
S. aureus 3074 = test: Agar-dilution test; conditions: Staphylococcus aureus
S. faecalis X-66 = test: Agar-dilution test; conditions: Enterococcus faecalis, X66
S. aureus 3055 = test: Therapy in experimental mouse infections; conditions: Staphylococcus aureus, 3055, in Mus musculus
S. pyogenes C203 [21] = test: Therapy in experimental mouse infections; conditions: Streptococcus pyogenes
S. pneumoniae I [22] = test: Therapy in experimental mouse infections; conditions: Streptococcus pneumoniae
gram positive bacteria = test: Antibacterial activity in standard test procedures

CCC1OC(=O)CC(O)C(C)C(OC2OC(C)C(OC3CCC(O)C(C)O3)C(N(C)C)C2O)C(CCO)CC(C)C(=O)C=CC2(C)OC2C1C (stereo not shown)
MIC [1]: 8 µg/mL (≈ 11.2 µM)
MIC [2]: 16 µg/mL (≈ 22.4 µM)
MIC [3]: 16 µg/mL (≈ 22.4 µM)
MIC [4]: 8 µg/mL (≈ 11.2 µM)
MIC [5]: 8 µg/mL (≈ 11.2 µM)
MIC (Peptococcus prevoti 1281): > 64 µg/mL
MIC [6]: 16 µg/mL (≈ 22.4 µM)
MIC [7]: 8 µg/mL (≈ 11.2 µM)
MIC [8]: 1 µg/mL (≈ 1.4 µM)
MIC [9]: 64 µg/mL (≈ 89.6 µM)
MIC [10]: 64 µg/mL (≈ 89.6 µM)
MIC [11]: 64 µg/mL (≈ 89.6 µM)
MIC [12]: 16 µg/mL (≈ 22.4 µM)
MIC [13]: 64 µg/mL (≈ 89.6 µM)
MIC [14]: 64 µg/mL (≈ 89.6 µM)
MIC [15]: 32 µg/mL (≈ 44.8 µM)
MIC [16]: 32 µg/mL (≈ 44.8 µM)
MIC [17]: 128 µg/mL (≈ 179 µM)
MIC [18]: 128 µg/mL (≈ 179 µM)
zone of inhibition at 300 µg/disc (S. Aureus (3 strains)): 27 mm
zone of inhibition at 300 µg/disc (S. pyogenes C203 [19]): 24.2 mm
zone of inhibition at 300 µg/disc (Group D Streptococcus): 22.5 mm
zone of inhibition at 300 µg/disc (S. pneumoniae I [20]): 36 mm
zone of inhibition at 300 µg/disc (E. coli Ec-14): 14 mm
zone of inhibition at 300 µg/disc (P rettgeri PR-2): 8.6 mm
zone of inhibition at 300 µg/disc (K. pneumoniae KL-14): 11.3 mm
zone of inhibition at 300 µg/disc (S. typhosa SA-12): 8.8 mm
MIC (S. aureus 3.55): 32 µg/mL (≈ 44.8 µM)
MIC (S. aureus 3074): > 128 µg/mL
MIC (S. faecalis X-66): 16 µg/mL (≈ 22.4 µM)
ED50 (S. aureus 3055): > 70 mg/kg
ED50 (S. pyogenes C203 [21]): > 70 mg/kg
ED50 (S. pneumoniae I [22]): > 70 mg/kg
antibacterial activity (gram positive bacteria): exhibit antibacterial activity, particularly against gram positive bacteria
